Results from US20250381307A1, “RETRO-AAV AND USE IN TREATING NEURODEGENERATIVE DISEASES” (priority 2023, published 2025).

Legend:
[1] = target: T1, rM3Ds (Rattus norvegicus, UniProt P08483, A177S/A238G/A489L/DEL261-437/DEL441-478/E258S/I253V/I483M/INS256[…]/K178L/K182A/K255R/K484R/K486H/L173F/L482A/M480V/R171S/R176Q/R179M/S481M/T174R/T181R/T257A/Y148C); experiment: In vivo electrophysiological recording in caudate/putamen, rM3Ds macaques, intramuscular CNO; design: rM3Ds; 2A-EYFP (C); host or cells: AAV8R12-transduced striatal D1-MSNs of mice and cynomolgus macaques (in vivo and acute slices)
T1 sequence (P08483 with tags, fused parts or gaps Y148C/R171S/L173F/T174R/R176Q/A177S/K178L/R179M/T181R/K182A/A238G/I253V/K255R/INS256[…]/T257A/E258S/DEL261-437/DEL441-478/M480V/S481M/L482A/I483M/K484R/K486H/A489L): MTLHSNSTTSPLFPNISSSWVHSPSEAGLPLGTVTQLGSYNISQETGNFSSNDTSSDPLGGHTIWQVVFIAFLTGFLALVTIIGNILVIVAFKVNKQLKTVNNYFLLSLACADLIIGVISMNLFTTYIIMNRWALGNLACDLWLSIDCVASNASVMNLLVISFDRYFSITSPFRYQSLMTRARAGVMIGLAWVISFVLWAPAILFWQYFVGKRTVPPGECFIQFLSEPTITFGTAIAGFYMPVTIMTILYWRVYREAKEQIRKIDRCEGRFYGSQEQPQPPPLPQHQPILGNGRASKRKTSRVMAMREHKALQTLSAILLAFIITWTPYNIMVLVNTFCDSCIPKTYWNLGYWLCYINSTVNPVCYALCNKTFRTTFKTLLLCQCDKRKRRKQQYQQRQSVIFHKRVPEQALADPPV
Method: Electrophysiological recording was performed through a recording chamber while the monkey was anesthetized. Neural responses were recorded by a 16-channel linear probe (Plexon Inc, Uprobe) driven by a mechanical microdrive (Alpha Omega, FlexMT). Signals were passed through a head stage (Plexon Inc, HST/16V-G20 LN) and then split and filtered between 300 Hz and 5 kHz to identify spiking activity with an amplifier system (Plexon Inc, OmniPlex). Detected spikes were then sorted by commercially available software (Plexon Inc, Offline Sorter) for further analysis. To quantify the effect of CNO/DCZ injection, neural activity was recorded for 60 minutes following CNO/DCZ injection. The response time-course for each channel was obtained by counting the spikes within every 10-minute window and then normalizing to the maximal.
To determine the effect of CNO/DCZ injection on the direction of signal change, we performed Pearson correlation between neural responses and time using the ‘corr’ function in Matlab, which generates the correlation coefficient ‘r’ and significant level ‘p’. A neuron was considered to have “Increased” activity when r>0 and p<0.05; and considered to have “Decreased” activity when r<0 and p<0.05. Otherwise, neurons were considered to be “Unchanged” in their neural activities. The responses of all increased neurons were then averaged after being normalized by the maximal response (Crowe et al., 2014; Dai and Wang, 2018; Hirokawa et al., 2019) following CNO/DCZ injection, and then plotted as a function of time to generate the normalized population response.
To enable in-vivo verification of the strategy via an opto-tagging approach, AAV virus encoding opsin ChR2 (AAV9-EF1α-DIO-ChR2-EYFP) was injected into the striatum with simultaneous nigral infusion of a retrograde AAV encoding Cre and rM3Ds (AAV8R12-G88P7-HA-rM3Ds-2A-Cre). A total volume of 27 μl (3 μl×9 sites) and 30 μl (3 μl×10 sites) were injected in the SNr and the striatum, respectively. A recording chamber was implanted above the striatum to allow optical stimulation and electrophysiological recording.
Optogenetic verification was conducted six weeks after virus injections. A 16-channel linear probe with an embedded optic fiber (Plexon Inc., Uprobe) was used to deliver light stimulation and record neural responses. A mechanical Microdrive (FlexMT, Alpha Omega, Nazareth, Israel) was used to mount and drive the probe. A blue laser (473 nm, Changchun New Industries Tech, MBL-III-473) was used to generate light stimulation, which was controlled by a DAQ board (National Instruments, PCIe-6321) through the MonkeyLogic toolbox (NIMH version).
Light pulses of 40 Hz that last for 500 ms were used to probe neurons' responses to optical stimulation. […] Responses from these optically identified cells were grouped to generate the normalized population response as a function of time.

[2] = system: hM3Dq or rM3Ds; experiment: Locomotion test in macaques with nigral hM3Dq or rM3Ds AAV after CNO; type: in vivo
Method: To guide the virus injection in SNr, a guide grid of multiple holes spaced by 1 mm was installed on each subject vertically above the SN. By filling vitamin E in these holes, the accurate coordinates for injection could be obtained from the T1-weighted MRI images (3T Tim Trio scanner, Siemens). Virus injections were performed in nine sites covering the whole SNr, and a total volume of 27 μL virus was unilaterally injected in the right SNr at the speed of 300 nL/min.
The locomotion tests for monkeys were conducted in a custom-made observation cage (100 cm×100 cm×100 cm). The top and front of the cage were made of toughened glass in order to gain a clear view for behavioral recording. Monkeys were habituated to the observation cage by placing them inside for 30 minutes on three separate days.
For monkeys injected with AAV8R12-G88P3-HA-hM3Dq, CNO was intracranially infused into the dorsomedial caudate through the recording chamber. To infuse while the animal was awake, the monkey was trained to sit in a primate chair specially designed with its head fixed to the primate chair by a mask made of thermoplastic materials. Injections were conducted through a 33-Gauge needle connected to a 250 μL syringe via a polyethylene pipe (Hamilton, Neuros). […] The needle was held for 5 minutes for drug diffusion before retraction. For monkeys injected with AAV8R12-G88P7-rM3Ds-2A-EYFP, CNO was infused via intramuscular injection (10 mg/kg). […] Videos capturing the subjects' behavior were recorded for at least 90 minutes. Animal behaviors from 30-90 minutes after saline/CNO infusion were further analyzed and quantified.
For rotation analysis, only movements that occurred lower than 30 cm on the z-axis were counted. To determine the direction of the rotation, we first computed the center for the rotation data in the x-y plane as (x0, y0) by averaging all data points, and then we computed the angle relative to (x0, y0) for each time point by the following formula:
where θi represents the rotating angle at time i, and (xi, yi) represents the x-y coordinate at time i. We then calculated the change of rotating angle as Δθi=θi−θi-1. For right nigral injections, when Δθ<0, the direction of the rotation was anticlockwise and was labeled as a contraversive rotation. When Δθ>0, the direction of the rotation was clockwise and was labeled as an ipsiversive rotation. The raw data were analyzed and plotted through a custom R package. Code is available on Github (github.com/chenyef/PD_ana/blob/main/Behavior_ana.txt).

Structure (SMILES): C[N+]1([O-])CCN(C2=Nc3cc(Cl)ccc3Nc3ccccc32)CC1 [CNO, clozapine N-oxide]
- caudate/putamen cells activated (FIG. 12N) ([1]; 38 total cells, saline 20%): 50%
- caudate/putamen cells unchanged (FIG. 12N) ([1]; 38 total cells, saline 26.7%): 36.8%
- caudate/putamen cells inactivated (FIG. 12N) ([1]; 38 total cells, saline 53.3%): 13.2%
- neuronal activity of opto-tagged retrogradely labeled D1-MSNs ([1]; AAV8R12-G88P7-HA-rM3Ds-2A-Cre plus AAV9-EF1α-DIO-ChR2-EYFP, anesthetized macaques): effectively induced an increase of neuronal activity
- caudate cells activated (FIG. 12F) ([1]; monkey CM048, 38 cells): 65.8%
- caudate cells inactivated (FIG. 12F) ([1]; monkey CM048, 38 cells): 7.9%
- caudate cells unchanged (FIG. 12F) ([1]; monkey CM048, 38 cells): 26.3%
- muscle tone by electromyogram recordings ([2]; following CNO infusions): an increase in the muscle tone of the contralateral biceps brachii
- contraversive rotations (FIG. 10C) ([2]; intracranial (hM3Dq) or systemic (rM3Ds) CNO, n=4 monkeys, mean±SEM, saline 1.004±0.2667): 6.649±1.662
- velocity of ipsiversive rotations (FIG. 10H) ([2]; n=4 monkeys, saline 37.43±3.264, not significant): 41.37±6.566
- speed during contraversive rotations (FIG. 10G) ([2]; n=4 monkeys, saline 38.42±5.465): 46.98±6.669
- time in the top portion of the observing cage (FIG. 10D) ([2]; n=4 monkeys, saline 68.42±10.7): 33.74±2.641
- total distance (FIG. 10F) ([2]; n=4 monkeys, saline 71.53±15.4, not significant): 97.37±19.41
- immobile time (FIG. 10E) ([2]; n=4 monkeys, saline 107.1±2.322, not significant): 89.13±8.379
- rotations 2.5 years after the nigral injections ([2]; systemic CNO, unilateral AAV8R12-G88P7-rM3Ds-2A-EYFP): increased contraversive rotations
